Measurements taken from patent US10894021B2, “Compositions of xanthorrhizol and tocochromanol (tocotrienol), and methods of use” (American River Nutrition, LLC, priority 2017, dated 2021).
Like-named read-outs stand apart in the source and are kept apart here.

Key:
[1] = test system: murine B16 melanoma cells; experiment: Cell growth assay, murine B16 melanoma cells (CellTiter 96 Aqueous One, 48 h); format: cell-based; settings: for suppression of the growth of B16 cells: P>0.05
Experimental: (§1) Cultures of cells, seeded in 0.1 mL medium with a density of 1,500 DU145 cells/well or 1,200 B16 cells/well in a 96-well plate, were incubated for 24 h at 37° C. in a humidified atmosphere of 5% CO2. At 24 h, the medium was decanted from each well and replaced with 0.1 mL fresh medium containing different concentrations of the test agents. Incubation continued for additional 48 h (B16) or 72 h (DU145). Following a quick rinse with 0.1 mL Hank's Balanced Salt Solution (HBSS), the 48-h (B16) or 72-h (DU145) cell populations were determined by adding 20 μL of CellTiter 96® Aqueous One Solution (Promega, Madison, Wis.) to each well; plates were held in the dark at 37° C. for 2 h and then read with a Synergy HT multi-plate reader (Biotek Instruments, Inc., Winooski, Vt.) and analyzed using the Gen5™ software (Biotek Instruments, Inc.). Absorbances from wells containing cell-free medium were used as baselines and were deducted from those of other cell-containing wells. The IC50 value is the concentration of xanthorrhizol required to suppress the net increase in cell number by 50%.
(§2) One-way analysis of variance (ANOVA) and Kruskal-Wallis tests were performed to assess the differences between groups using Prism® 7.0 software (GraphPad Software Inc., San Diego, Calif.). Differences in means were analyzed by Dunnett's multiple comparison test unless specified otherwise. Values were mean±standard error of mean (SEM). Levels of significance were designated as P<0.05. […] The constant-ratio combination design of xanthorrhizol and d-δ-tocotrienol in our study allowed automated creation of the classic isobologram by using the CompuSyn software. CI values lower than 1 indicate synergistic effect of the agents (Tallarida 2006).
(§3) Murine B16 melanoma cells were cultured in Dulbecco's Modified Eagle's Medium (DMEM) supplemented with 10% FBS, 1% penicillin-streptomycin and 0.8% gentamicin. For optimal growth, cells were incubated at 37° C. in a humidified atmosphere of 5% CO2. d-δ-Tocotrienol and xanthorrhizol were pre-dissolved in ethyl alcohol. All treated cultures contained 0.1% (v/v) of ethyl alcohol.

[2] = test system: human DU145 prostate carcinoma cells; experiment: Cell growth assay, human DU145 prostate carcinoma cells (CellTiter 96 Aqueous One, 72 h); format: cell-based; settings: for concentration achieving 90% of growth suppression: individual agent (FIG. 6)
Experimental: as §1, §2
Human DU145 prostate carcinoma cells were cultured in Roswell Park Memorial Institute ([…]) medium supplemented with 10% Fetal Bovine Serum (FBS; Fisher Scientific, Houston, Tex.), 1% penicillin-streptomycin (Fisher Scientific), and 0.8% gentamicin (Fisher Scientific).

[3] = test system: murine B16 melanoma cells; experiment: Cell cycle analysis by flow cytometry (propidium iodide DNA content), B16 cells; format: cell-based; settings: 24-h; for percentage of cells at the G1 phase: mean±SEM, control 56.1±1.6%, no significant change
Experimental: Cells were seeded in 25 cm^2 flasks (Becton Dickinson Labware, Franklin Lakes, N.J.) at 1×10^6 cells (B16) per flask with 3 mL medium/flask and incubated for 24 h. Medium was then decanted and cultures were replenished with fresh medium containing the test agents that had been dissolved in ethyl alcohol. Following an additional 24-h incubation, adherent cells were harvested by trypsinization and pelleted by low speed centrifugation at 500 g for 5 min. Cell pellets were gently fixed in 1 mL of 70% ethanol-PBS mixture at −20° C. overnight and washed with PBS before 5×10^5 cells were re-suspended in 500 μL of PBS containing freshly prepared propidium iodide and RNase A (Roche Diagnostics, Indianapolis, Ind.) and incubated at 37° C. in the dark for 30 min as described (Yeganehjoo, DeBose-Boyd et al. 2017). Aliquots of 200 μL of the stained cells were analyzed for DNA content using a BD LSR Fortessa flow cytometer (BD Biosciences, San Jose, Calif.). The distribution of cells in the G1 and S phases of the cell cycle was determined using MultiCycle AV software (Phoenix Flow Systems, San Diego, Calif.).
as §3
The effect of blends of xanthorrhizol and d-δ-tocotrienol were evaluated on the cell cycle distribution of murine B16 melanoma cells (FIG. 4). At 0-h as baseline, the percentages of cells in the G1, S, and G2 phases of cell cycle were 54.1±0.7%, 27.6±0.4%, and 18.3±0.8% (mean±SEM), respectively. Following a 24-h incubation […], these percentages were relatively stable for the control group (56.1±1.6%, 32.1±0.6% and 11.7±1.9% for G1, S and G2 phases, respectively).

[4] = test system: murine B16 melanoma cells; settings: McAnally, Gupta et al. 2007, read-out: previous reported IC50, concentration required to elicit 50% of growth inhibition; cited from earlier work
[5] = 16.25 μmol/L xanthorrhizol, versus control

IC50 ([1]; B16 cells, 48 h incubation, read-out: IC50, concentration required to elicit 50% of growth inhibition) [µM]	IC50 ([2]; DU145 cells, 72 h incubation, read-out: IC50, suppression of the proliferation of DU145 cells) [µM]	Compound	suppression of the growth of B16 cells ([1]; 16.25 μmol/L xanthorrhizol applied individually)	suppression of the proliferation of murine B16 melanoma cells ([1]; xanthorrhizol 0-200 μmol/L)	concentration achieving 90% of growth suppression ([2]; DU145 cells) [µmol/L]	suppression of the proliferation of human DU145 prostate carcinoma cells ([2]; xanthorrhizol 0-200 μmol/L)	G1/S ratio, indicator of cell cycle arrest [3, 5]	percentage of cells at the S phase [3, 5]	percentage of cells at the G1 phase ([3]; 16.25 μmol/L xanthorrhizol) [%]	suppression of the growth of B16 cells ([1]; 10 μmol/L d-δ-tocotrienol applied individually) [%]	suppression of the proliferation of murine B16 melanoma cells ([1]; d-δ-tocotrienol 0-40 μmol/L)	IC50 [4] [µM]	percentage of cells at the G1 phase ([3]; 5 μmol/L d-δ-tocotrienol) [%]
65	101	CC(C)=CCC[C@@H](C)c1ccc(C)c(O)c1 [xanthorrhizol]	approximately 15%	concentration-dependent suppression	182	concentration-dependent suppression	significantly higher	decreased	59.5±0.7				
		CC(C)=CCC/C(C)=C/CC/C(C)=C/CC[C@]1(C)CCc2cc(O)cc(C)c2O1 [d-δ-tocotrienol]			32					~12	concentration-dependent suppression	14	59.2±1.3
